According to patent US20230416298A1, “PRODRUGS OF NEUROACTIVE STEROIDS” (Brii Biosciences, Inc., priority 2020, published 2023):

Experiments:
Plasma stability = assay type: in vitro ADME; settings: 37° C.; for Stability in Human Plasma Formation of parent compound: 2 μM, Yes/No; for half-life at 2 μM: pooled plasma, pH 7.4, human plasma, time points 0, 10, 30, 60 and 120 min
Method: The pooled frozen plasma was thawed in a water bath at 37° C. prior to experiment. Plasma was centrifuged at 4000 rpm for 5 min and the clots were removed if any. The pH will be adjusted to 7.4±0.1 if required.
Preparation of test compounds and positive control (propantheline bromide): 1 mM intermediate solution was prepared by diluting 10 μL of the stock solution with 90 μL MeOH; 1 mM intermediate of positive control Propantheline was prepared by diluting 10 μL of the stock solution with 90 μL ultrapure water. 100 μM dosing solution was prepared by diluting 20 μL of the intermediate solution (1 mM) with 180 μL MeOH. 98 μL of blank plasma was spiked with 2 μL of dosing solution (100 μM) to achieve 2 μM of the final concentration in duplicate and samples were incubated at 37° C. in a water bath. At each time point (0,10, 30, 60 and 120 min), 400 μL of stop solution (0.1% FA in MeOH containing 200 ng/mL tolbutamide and 200 ng/mL Labetalol) was added to precipitate protein and mixed thoroughly. Centrifuged sample plates at 4,000 rpm for 10 min. An aliquot of supernatant (100 μL) was transferred from each well to another plates.
Data analysis: The % remaining of test compound after incubation in plasma was calculated using following equation:
% Remaining=[…]×(PAR at appointed incubation time/PAR at T0 time)
where PAR is the peak area ratio of analyte versus internal standard (IS) (LC/MS/MS mobile phase condition: 0.1% Formic Acid in Water/0.1% Formic Acid in Acetonitrile. The appointed incubation time points are TO (0 min), Tn (n=0, 10, 30, 60, 120 min).

Liver S9 stability = assay type: in vitro ADME; settings: human liver S9, 37° C.; for half-life at 1 μM: time points up to 60 min; for Stability in Human Liver S9 Formation of parent compound: Yes/No
Method: Intermediate solution: Dilute 5 μL of compounds or controls (7-ethoxycoumarin) from stock solution (10 mM) with 495 μL MeOH (Conc.: 100 μM, 1% DMSO, 99% MeOH). Stop solution: Cold ACN (including 100 ng/mL Tolbutamide and Labetalol as internal standard). Add 2 μL test compound or control working solution/well to all plates (T0, T5, T10, T20, T30, T60, NCF60) except matrix blank. Add 600 μL/well stop solution (cold in 4° C., including 100 ng/mL Tolbutamide/100 ng/mL Labetalol) to terminate the TO plate, then put it on ice. Dispense 840 μL/well S9 solution to 96-well plate as reservoir according to plate map. Then add 100 μL/well to every plate by Apricot. Incubate S9 solution and compound at 37° C. for about 10 min except NCF60 and TO. After adding S9 solution and 98 μ LPB buffer to NCF60, incubate at 37° C. without pre-warming, start timer 1. After 60 min, add 600 μL/well stop solution to terminate the reaction. After pre-warming, dispense 760 μL/well cofactor solution to 96-well plate as reservoir according to plate map. Then add 98 μL/well to every plate by Apricot to start reaction. Incubate at 37° C., start timer 2, Add 600 μL/well stop solution (cold in 4° C., including 100 ng/mL Tolbutamide and Labetalol) to terminate the reaction. Samples are centrifuged at 4000 rpm for 20 min. While centrifuging, load 8×new 96-well plate with 300 μL HPLC water, then transfer 100 μL supernatant, mix with water for LC/MS/MS, transferred to Bioanalytical Services for LC-MS/MS analysis. Use equation of first order kinetics to calculate t1/2 and CL: Equation of first order kinetics: […]

CC(=O)[C@H]1CC[C@H]2[C@@H]3CC[C@H]4C[C@H](OC(=O)OCCN(C)C(=O)C(C)C)CC[C@]4(C)[C@H]3CC[C@]12C [Example 25, (3R,5S,8R,9S,10S,13S,14S,17S)-17-acetyl-10,13-dimethylhexadecahydro-1H-cycl penta[a]phenanthren-3-yl(2-(N-methylisobutyramido)ethyl) carbonate]
Stability in Human Plasma Formation of parent compound (Plasma stability): No
half-life at 2 μM (Plasma stability): > 3.33 h
half-life at 1 μM (Liver S9 stability): < 0.833 h
Stability in Human Liver S9 Formation of parent compound (Liver S9 stability): No

COC(=O)N(C)CCOC(=O)O[C@@H]1CC[C@@]2(C)[C@@H](CC[C@@H]3[C@@H]2CC[C@]2(C)[C@@H](C(C)=O)CC[C@@H]32)C1 [Example 27, [(3R,5S,8R,9S,10S,13S,14S,17S)-17-acetyl-10,13-dimethyl-2,3,4,5,6,7,8,9,11,12,14,15,16,17-tetradecahydro-1H-cyclopenta[a]phenanthren-3-yl]2-(methoxycarbonyl-N-methylamino)ethyl carbonate]
Stability in Human Plasma Formation of parent compound (Plasma stability): No
half-life at 2 μM (Plasma stability): > 3.33 h
half-life at 1 μM (Liver S9 stability): < 0.833 h
Stability in Human Liver S9 Formation of parent compound (Liver S9 stability): Yes
